Reference: patent US9060945B2, “Use of danielone and derivatives thereof in skin care” (DSM IP Assets B.V., priority 2012, dated 2015)

What was measured:
Assay type in all cases: cell-based
[1] = test system: Normal human melanocytes moderately pigmented (HEMn-MP); assay: Cytotoxicity, MTT assay; conditions: 3 days incubation, OD 550 nm
Protocol: Cytotoxicity was measured using the MTT assay (Roche). In brief: Normal human melanocytes moderately pigmented (HEMn-MP) were precultured for 24 hrs, and then incubated with compounds for three days. We then added MTT (Roche) labeling reagent 10 μl to each well (final concentration 0.5 mg/ml) and incubated the microtiterplate for 4 hrs at 37° C., and under 5% CO2. After addition of 100 μl solubilisation solution into each well, the plate was allowed to stand overnight in the incubator (37° C., 5% CO2. The absorbance OD 550 nm was measured in an absorbance plate reader (ELX 800 BIO-TEK Instrument) and the data is shown in Table 1.

[2] = test system: Normal human melanocytes moderately pigmented (HEMn-MP); assay: Quantification of melanin synthesis in cell culture; conditions: 3 days, baseline = 100, 405 nm
Protocol: Normal human melanocytes moderately pigmented (HEMn-MP) were seeded in 96 well cell culture plates (20′000 cells per well) and grown to sub-confluence for three days in a 1:2 mixture of M2-Medium (Clonetics) and Promocell-Medium together ‘Culture medium’. Culture medium was exchanged with Culture Medium containing compound and melanogenesis progressed for another three days in an incubator at a temperature of 37° C. and at 5% CO2 atmosphere. Including cell layer and culture supernatant total melanin was extracted using 1.7M KOH with shaking at 300 rpm for approximately 1 hour at room temperature. We measured melanin content at 405 nm in an absorbance plate reader. We use phenylthiourea (PTU) as a positive control at a concentration of 0.0152% (1 mM). PTU is a tyrosinase inhibitor (Poma 1999) and is commonly used as a reference in cell pigmentation assays (see e.g. Le Pape 2008).

[3] = test system: Human melanocytes moderately pigmented (HEMn-MP); assay: Cell-pellet depigmentation assay; conditions: scale 1 to 5 (5 = dark control cell pellet, 1 = very light brown cell pellet)
Protocol: Human melanocytes moderately pigmented (HEMn-MP) were seeded in 6-well culture plates at a cell density of 2×10E5 cells/mL and preincubated for three days in a 1:2 mixture of M2-Medium (Clonetics) and Promocell-Medium together ‘Culture medium’ in an incubator at a temperature of 37° C. and at 5% CO2 Atmosphere. Culture medium was exchanged with Culture Medium containing compound and melanogenesis progressed for another three days in an incubator at same incubation conditions as described above. Compound dilutions were done in duplicates. Cells were harvested after trypsinization and pooled in eppendorf-tubes, centrifugated and supernatant removed. The remaining cell pellet was photographed and visually checked for whitening effects. The pellets were scored for their darkness in a scale 1 to 5 (5 corresponding to dark control cell pellet) and 1 corresponding to a very light brown cell pellet.

[4] = test system: Normal human melanocytes NHM (HEMn-MP); assay: Effect on melanogenesis, comparative example (melanin synthesis in cell culture); conditions: for skin whitening activity (in words): at all three concentrations tested; for % melanin inhibition: 3 days, 405 nm
Protocol: Normal human melanocytes NHM (HEMn-MP) were seeded in 96 well cell culture plates (20′000 cells per well) and grown to sub-confluence for three days in a 1:2 mixture of M2-Medium (Clonetics) and Promocell-Medium together ‘Culture medium’. Culture medium was exchanged with Culture Medium containing compound and melanogenesis progressed for another three days at a temperature of 37° C. and at 5% CO2 atmosphere. Including cell layer and culture supernatant total melanin was extracted using 1.7M KOH with shaking at 300 rpm for approximately 1 hour at RT. We measured melanin content at 405 nm in an absorbance plate reader. The experiment was done in triplicates. We used PTU as a positive control.

Structure (SMILES) | Viability ([1]; concentration 0.00025 %) [%] | Viability ([1]; concentration 0.0025 %) [%] | Viability ([1]; concentration 0.025 %) [%] | Total melanin ([2]; concentration 0.000625 %) [%] | Total melanin ([2]; concentration 0.00125 %) [%] | Total melanin ([2]; concentration 0.0025 %) [%] | Darkness level of the cell pellet ([3]; 0.0025%) | skin whitening activity (in words) [4] | % melanin inhibition ([4]; concentration 0.0025%) [%] | % melanin inhibition ([4]; concentration 0.005%) [%] | % melanin inhibition ([4]; concentration 0.01%) [%] | Total melanin ([2]; concentration 0.0152 % (1 mM)) [%] | Darkness level of the cell pellet ([3]; 0.0152%)
COc1cc(C(=O)CO)cc(OC)c1O [Danielone, 2-hydroxy-1-(4-hydroxy-3,5-dimethoxy-phenyl)-ethanone] | 112 | 113 | 51 | 104 | 75 | 66 | 2 | very efficient | 1.51 | −40.20 | −49.25 | – | –
COc1cc(C(=O)CCO)ccc1O [beta-hydroxypropiovanillon, reference compound] | – | – | – | – | – | – | – | no activity | 7.45 | 7.45 | 4.26 | – | –
NC(=S)Nc1ccccc1 [PTU, phenylthiourea, reference compound] | – | – | – | – | – | – | – | – | – | – | – | 58 | 1
